For one data set, the system named is Male C57BI mice. Nature of the data set: Apomorphine mediated inhibition of RITALIN®-induced hyperactivity in activity box (pilot study, Example 5). In kind it is in vivo. Particulars: for locomotion after apomorphine alone: given at 5 mg/kg, 5 mg/kg. The method, then: Male mice C57BI weighing about 22 g were used in the study.
Male C57BI mice weighing about 22 g were used in the study.
Mice were administered saline solutions of the two actives as follows:
Methylphenidate was dissolved in saline 0.9% to a concentration of 0.5 mg/ml,
Both compounds' solutions were administered at dose volume of […].
Animals' motor locomotion in four groups (1-4 M) was assessed in the activity box. Animals were placed in the activity box and several parameters were observed including movement time, distance, V-plan entries, margin vs. center time, and other parameters. Groups 1-3 M were monitored for 30 minutes each, during which all parameters were assessed at 2 minutes intervals. In the 4 M group, animals were monitored for 60 minutes with 2 minutes assessment intervals. The assessment in the activity box was done in total darkness (red light was used for illumination). The main parameters that were calculated in this study were the move time, total distance and vertical plan entry. The observation for groups 1-3 M were made during 30 minutes with 2 minutes calculation intervals of each parameter. In the fourth group (4 M) the observations were extended for 60 minutes with 2 minutes calculation intervals

For the next data set, the system named is mice. Put plainly: Apomorphine blocking of RITALIN®-induced hyperactivity at human equivalent dosing (second study, Example 6). The data set is classed as in vivo. Particulars: mice (n=4).
The next data set relates to C57bl/6J male mice. Put plainly: Open Field Test (OFT, activity box) with Methylphenidate, Apomorphine and their combination (Example 7). The note with it: for effect on Methylphenidate-increased distance travelled and velocity: Methylphenidate 5 mg/kg, dose dependent; for Center Time / Distance / Rearing Time / Velocity: Day 1, group average. The data set is classed as in vivo. The method, then: Eight groups comprising eight or nine C57bl/6J male mice were assigned for this study. Methylphenidate (MPH) was used as the model inducer. […] Spontaneous activity in Open Field Test (OFT) was performed.
Each Test Item and vehicle formulation was administrated to 8/9 mice per group. The administration was performed PO or IP according to group allocation in Table 1.
The open field test (OFT) is a commonly used qualitative and quantitative measure of general locomotor activity and willingness to explore in rodents. Open Field test (OFT) was performed according to Pharmaseed SOP No. 113: “Open Field for Mice Testing”. OFT was performed 15 or 30 min after test item IP or PO administration, respectively.
Fifteen minutes after test item/vehicle administration, mice were placed at the center of an open field box (43×43×40 cm) approximately at the same time of the day. On each side of the open field box, two frames placed at 2 and 5 cm height with 16 photocell beams per side ensured movement detection. The computer defined grid lines that divided the open field into two compartments: margin and center. Several variables were recorded during a 15 minute session of spontaneous activity including: • Indices of motor exploratory activity: distance travelled, moving time, and velocity • Indices of habituation: distance travelled during the last 5-min period in percent of the first+last 5-min periods. • Indices of anxiety: percentage of distance travelled and time spent in the central zone of the open-field. • Curiosity activity: rearing episodes and time Open Field Test (Activity Box)
OFT was performed 15 or 30 min after test item IP or PO administration, respectively. The parameters measured were distance and velocity as indicators of general motility, time spent in center as an indicator for anxiety and rearing time as indicator of the animal's curiosity.

The subject of data set [1] is dogs. Nature of the data set: Apomorphine-induced emesis in dogs (Example 8). In kind it is in vivo. Particulars: for apomorphine-induced emesis: apomorphine IV 0.15 mg/kg, alone (group 3) or with MPH 1.7 mg/kg (group 5). The source says: Methylphenidate (MPH) was used as the model inducer.
Data set [2] deals with dogs. Nature of the data set: Behavior observation: activity levels and clinical signs in dogs (Example 8). Particulars: for video observation: behavior associated to hyperactivity: first 60-100 min. As for the experimental part: (§1) Six groups comprising six dogs were assigned for this Example. Methylphenidate (MPH) was used as the model inducer. […] Behavioral observation was performed during 6 hours following test items administration and blood samples were taken on 4 dogs per group at 0.25, 0.5, 1, 1.5, 3, 4 and 6 hours post-administration for pharmacokinetic (PK) analysis.
Animals: Mixed breed dogs (5 Males+7 females/12/3 to 5 years/10.5 to 18.5 kg, from SPM Biocameltec) were used in the studies outlined in this example.
Administration of the test items: Each Test Item was administrated to 6 dogs per group. The administration was performed PO or IV according to group allocation in Table 3. The study was performed in 3 cycles and a period of wash-out of at least 10 days was respected between each cycle.
Behavior observation: The animals were observed every 10 minutes during the first 2 hours post administration, and every 20 minutes thereafter, for 6 hours. Observations included respiratory, circulatory, autonomic and central nervous systems, somatomotor activity and behavior pattern (e.g. sedation, respiration rate, changes in mentation, gait, and the like).

The nature of data set [3]: PK analysis of Methylphenidate and Apomorphine in dogs' plasma (Example 8). Particulars: for change in PK profile on co-administration: t-test: no statistical significance. The method, then: as §1
Blood Collection and PK analysis: For blood collection, a 5 ml syringe was used and blood sampling was directly collected at the jugular vein. Blood samples were collected in K3-EDTA tubes at the following time points: 0.25, 0.5, 1, 1.5, 3, 4 and 6 hours post-administration (7 samples). At each time point, 6 ml of blood was collected for 4 drug-treated dogs. Plasma samples were analyzed using LC-MS/MS and PK analysis was performed using the PK Solutions Version 2.0 program.

Data set [4] concerns dogs. Particulars: general statement, not this study, cited from earlier work.

The structures appear in SMILES notation. Several values for one entry are separate records, joined by “and”; a condition that tells them apart may be missing. Equal entries are not always repeated. Entries after “also recorded” stand apart in the source; their conditions may differ. Structures can show the parent of a compound that is named as a salt. Where two headings read alike, the source gives them in different places. Marks after values point to notes of the source that are not given here.

Take `CN1CCc2cccc3c2[C@H]1Cc1ccc(O)c(O)c1-3` [Apomorphine, apomorphine]: the “locomotion after apomorphine alone” value was “caused a sudden ataxia in animals, with nearly still locomotion” in the data set with Male C57BI mice (mice, activity box); “induces hypoactivity and nearly ataxic behavior” with Male C57BI mice (mice, activity box, listed as apomorphine). In addition, the “effect on RITALIN®-induced hyperactivity” value in the data set on Male C57BI mice (apomorphine injected 5 minutes after RITALIN®, apomorphine 5 mg/kg, RITALIN® 8 mg/kg) was “totally abolished the effect of RITALIN®; also recorded: total dominance of the effect induced by apomorphine”. For the same compound, the “entering the vertical plan” value in the data set on Male C57BI mice (apomorphine, mice, activity box) is recorded as “abolished”. The “animals movement / RITALIN®-induced hyperactivity after apomorphine injection” value in the data set on mice (apomorphine 1.23 mg/Kg with RITALIN® 8.25 mg/Kg) is listed as “dramatically decreased the animals movement”. For the same compound, the “rearing time compared to Methylphenidate IP treated group (2M)” value with C57bl/6J male mice (Apomorphine 0.9 mg/kg IP in combination with Methylphenidate (7M), Day 1) was “significantly reduced rearing time”. The “antagonism of Methylphenidate-caused elevation in locomotor activity” value in the data set with C57bl/6J male mice (Apomorphine 0.05-0.9 mg/kg IP with Methylphenidate 5 mg/kg) is on record as “antagonized this effect in a dose-dependent manner”. The “effect on Methylphenidate-increased distance travelled and velocity” value in the data set on C57bl/6J male mice (combination with Apomorphine 0.9 mg/kg IP (7M), Day 1) is “significantly reduced”; with C57bl/6J male mice (combination with Apomorphine 0.3 mk/kg IP (6M), Day 1), “significantly reduced”. Also, the “time to emesis post administration” value with dogs [1] (apomorphine IV 0.15 mg/kg (group 3 and group 5), dogs) is 1 to 2 min. Moreover, the apomorphine-induced emesis result with dogs [1] (dogs) is recorded as “inducing emesis”; with dogs [1] (dogs, listed as apomorphine) it was “observed in all treated dogs”. Further, in the data set with dogs [1] (apomorphine PO 0.027 mg/kg (group 4), dogs), the induction of emesis result is “did not induce emesis”. Also, the “Recorded time for observed emesis following apomorphine administration, individual dogs” value in the data set with dogs [1] (group #3 Apo IV 0.15 mg/kg, Dog 1 to Dog 6, listed as Apo, 0.15 mg/kg) is 1.0 minutes and 1.5 minutes and 1.1 minutes (2×) and 0.8 minutes and 0.9 minutes. Also, in the data set on dogs [1] (group #3 Apo IV 0.15 mg/kg, mean of 6 dogs), the “Recorded time for observed emesis following apomorphine administration, Mean” value worked out at 1.1 min. Further, in the data set with dogs [2] (apomorphine administered concomitantly with MPH (group 5), IV), the “effect on MPH-induced clinical signs” value is recorded as “abolished these MPH-induced clinical signs”. Moreover, the “effect on MPH-induced increase in activity” value in the data set with dogs [2] (combination with Apomorphine 0.15 mg/kg IV (group 5), MPH 1.7 mg/kg IV, dogs) is given as “diminished the observed increases in activity; also recorded: significantly reduced the observed increase in activity; also recorded: significantly reduced these effects”. In addition, the “video observation: behavior associated to hyperactivity” value in the data set on dogs [2] (group 5 (apomorphine 0.15 mg/kg + MPH 1.7 mg/kg IV)) is listed as “only with circling episodes”. The plasma levels entry in data set [3] (Apomorphine IV 0.15 mg/kg and PO 0.027 mg/kg, dogs' plasma, especially following oral administration) is “low levels”. In addition, in data set [3] (Apomorphine co-administered with Methylphenidate, dogs), the “change in PK profile on co-administration” value is “somewhat lower values”. Moreover, the “dose to induce vomiting in dogs” value with dogs [4] (IV) is on record as “greater than 0.02 mg/kg”; with dogs [4] (PO) it was “greater than 4 mg/kg”; in the data set on dogs [4] (SC), “greater than 0.3 mg/kg”.
Take `COC(=O)C(c1ccccc1)C1CCCCN1` (centres unmarked) [Methylphenidate, methylphenidate HCl]: in the data set on Male C57BI mice (RITALIN® 5 mg/kg, mice, activity box), the “motor activity (move time and distance)” value was “induced hyperactivity”. Also, the “motor activity (move time and distance covered)” value with Male C57BI mice (RITALIN® 8 mg/kg, mice, activity box, HCl, 8 mg/kg) is “induced hyperactivity”. For the same compound, the “change of move time and distance over time” value in the data set with Male C57BI mice (RITALIN® induced group, 30 minutes observation) was “no significant change over time”. Also, in the data set with mice (RITALIN® 8.25 mg/Kg), the “animals' activity post RITALIN® administration” value was “drastic increase in the animals' activity”. For the same compound, the “Center Time” value in the data set with C57bl/6J male mice (MPH 5 mg/kg IP (2M)) turned out to be 89.8 s; in the data set on C57bl/6J male mice (MPH 5 mg/kg PO (3M)), 88.2 s. The Distance in the data set with C57bl/6J male mice (MPH 5 mg/kg IP (2M)) is reported as 3147.1 cm; in the data set on C57bl/6J male mice (MPH 5 mg/kg PO (3M), p < 0.05 vs. 2M) it was 2198.4* cm. For the same compound, the “Rearing Time” value turned out to be 114.3 s in the data set on C57bl/6J male mice (MPH 5 mg/kg IP (2M)) and 104.5 s in the data set on C57bl/6J male mice (MPH 5 mg/kg PO (3M)). Besides, the Velocity in the data set with C57bl/6J male mice (MPH 5 mg/kg IP (2M)) worked out at 4.3 cm/s; in the data set on C57bl/6J male mice (MPH 5 mg/kg PO (3M)), 3.4 cm/s. The “distance travelled and velocity compared to Vehicle-treated controls (1M)” value with C57bl/6J male mice (Methylphenidate 5 mg/kg IP (2M), Day 1, OFT, HCl) is “significantly increased; also recorded: caused elevation in locomotor activity”. Further, the activity levels entry in the data set on dogs [2] (MPH IV 1.7 mg/kg (group 1), dogs, notably during the first 60-100 min, HCl, 1.7 mg/kg) was “caused increased activity levels; also recorded: induced increased activity levels”; in the data set on dogs [2] (MPH IV 1.7 mg/kg (group 1), dogs, notably during the first 60-100 min, listed as MPH, HCl, 1.7 mg/kg) it was “significantly increased dog activity levels”; with dogs [2] (Methylphenidate PO 0.3 mg/kg (group 2), dogs, score corresponding to normal dogs), “did not induce significant modification of activity levels”. The “time until which clinical signs were observed post administration” value with dogs [2] (MPH IV 1.7 mg/kg (group 1), at least the 30 first minutes, up to 110 minutes in one dog) lay in the range of 50 to 70 min. The “video observation: behavior associated to hyperactivity” value with dogs [2] (group 1 (MPH IV 1.7 mg/kg)) was “constant barking, jumping, walking/circling and a very dynamic state”. For the same compound, the “change in PK profile on co-administration” value in data set [3] (Methylphenidate co-administered with Apomorphine, dogs) is reported as “somewhat higher values”. In addition, the “effect of co-administration of Apomorphine on bioavailability or any other PK parameters” value in data set [3] (Methylphenidate, dogs) is listed as “not affected”. In data set [3] (Methylphenidate, dogs, PO 0.3 mg/kg vs IV 1.7 mg/kg), the bioavailability entry is “comparable to values published previously in the literature”.

The record behind these values is patent US11103458B2, “Stimulant abuse-deterrent compositions” (4P-Pharma, priority 2015, dated 2021).
